Values quoted from earlier work, collected in patent publication US20250381202A1, “PRODRUG KIT FOR MULTI-PRONGED CHEMOTHERAPY” (priority 2022, published 2025).
Where two headings read alike, the source gives them in different places.

Settings: in vivo tumor model, area under the curve until the drug concentration reaches zero

In the case of `COc1cccc2c1C(=O)c1c(O)c3c(c(O)c1C2=O)C[C@@](O)(C(=O)CO)C[C@@H]3O[C@H]1C[C@H](N)[C@H](O)[C@H](C)O1` [doxorubicin, Doxorubicin], the AUC0-t (In blood) is listed as 80.9 µg·min/mL and the AUC0-t (Tumor Mean PK) is listed as 33.4 µg·min/mL.
